Values of other authors in patent US20040197891A1, “Removal of plasmin(ogen) from protein solutions” (priority 2001, published 2004).
Like-named read-outs stand apart in the source and are kept apart here.

What was measured:
[1] = system: fibrinolytic activity of plasma
[2] = plasma that has been heparinized oral blood

| SMILES | antifibrinolytic activity compared with EACA (plasmin(ogen)) | inhibition (anti-fibrinolytic activity) [1, 2] [%] | inhibition (anti-fibrinolytic activity) ([1]; urokinase-stimulated plasma) [%] | antifibrinolytic potency (plasmin(ogen)) |
| --- | --- | --- | --- | --- |
| N=C(N)c1ccc(N)cc1 [PAMBA, p-amino benzamidine] | about three | – | – | – |
| NCCCCCC(=O)O [ε-amino-caproic acid, ε-amino caproic acid] | – | 65 | 98 | – |
| NCCCC[C@H](N)C(=O)O [lysine] | – | – | – | very low |
| NC[C@H]1CC[C@H](C(=O)O)CC1 [tranexamic acid] | – | 39 | 91 | – |
